Tested on: MGL
Experiment: Phagocytosis assay with block of zymosan uptake
Assay type: cell-based, human
Conditions: 1 μM, 30 min prior to incubation with zymosan
Description: Phagocytosis Assay. Phagocytosis assay was performed according to the manufacturer's instructions with pHrodo™ Red Zymosan A BioParticles® (Life Technologies, Carlsbad, USA) conjugate for phagocytosis. Briefly, 20,000 MGL were plated on a 96-well tissue culture plate and incubated in M2 media [Neurobasal media supplemented with 2×Gem21 NeuroPlex, 1×NEAA, 1× Glutamax] containing fluorescently labeled zymosan particles (0.125 mg/ml) for 2 h at 37° C., 5% CO2. Fluorescence was measured with Tecan Infinite 200 PRO microplate reader (Life Sciences, Switzerland).
For experiments featuring block of zymosan uptake, cell monolayers were treated with 1 μM Cytochalasin D (Sigma-Aldrich) 30 min prior to incubation with zymosan.

C=C1[C@@H](C)[C@H]2[C@H](Cc3ccccc3)NC(=O)[C@]23[C@H](OC(C)=O)/C=C/[C@@](C)(O)C(=O)[C@@H](C)C/C=C/[C@H]3[C@@H]1O [Cytochalasin D]
Engulfment of zymosan particles: reduced

From patent US20250262247A1, “MICROGLIAL CELLS AS THERAPEUTIC TARGETS IN NEURODEVELOPMENTAL DISORDERS” (The Regents of the University of California, priority 2022, published 2025)
